In patent US12018093B2, “Hemiasterlin derivatives and antibody-drug conjugates including same” (priority 2017, dated 2024):
Values joined by “and” are separate entries in the source; they are usually repeats but may differ in a detail not shown here. Equal entries are not always repeated. “Also recorded” adds a separate entry of the source. Where two headings read alike, the source gives them in different places.

Assays:
in vitro = settings: PAMPA, pH 7.4
Protocol: By the parallel artificial membrane permeability assay (PAMPA), the membrane permeability of compounds of Examples was examined as follows: To the donor plate, System solution (pION inc.) and GIT Lipid-0 (pION inc.) were added in an amount of 200 μL and 4 μL for each well, respectively. To the acceptor plate, Acceptor Sink Buffer (pION inc.) was added in an amount of 200 μL. Both plates were superposed and incubated at 37° C. for 4 hours, and then, UVs in the solutions on the side of acceptor and on the side of donor were measured with an UV plate reader (190 to 500 nm). Compounds with poor UV absorption were measured by LC-MS. The permeability coefficient Pe (10^−6 cm/sec) of the drug was calculated by the following formula.

SK-BR-3 cells = assay: Cellular toxicity test (2), CellTiter-Glo, SK-BR-3; type: cell-based; settings: Homo sapiens, 72 h, cultured 3 days, cell viability
Protocol: (§1) The IC50 value was calculated by the following formula: IC50(nM)=antilog(LOG10(a/b)×(e−d)/(c−d)+LOG10b) • a: concentration a of test substance • b: concentration b of test substance • c: cell viability upon adding test substance with concentration a • d: cell viability upon adding test substance with concentration b • e: intermediate value between maximum and minimum among cell viabilities upon • adding test substances with different concentrations (a and b are concentrations crossing the cell viability e, and a>b is indicated).
(§2) The cell viability at each concentration was calculated by the following formula: Cell Viability (%)=a′/b′×100 • a′: mean value of luminescence amount of wells to which test substance was added (n=6) • b′: mean value of luminescence amount of wells to which test substance was not added (n=6) • (n represents the number of evaluations performed per test substance concentration).
SK-BR-3 cells (ATCC), which are a human breast cancer cell line, were cultured in McCoy's 5A (GIBCO) containing 10% fetal bovine serum (MP Biomedicals) (hereinafter, referred to as the “culture medium” in this test). SK-BR-3 cells were prepared to be 2×10^6 cells/mL in the culture medium, added to a 96 well microplate for cell culturing in an amount of 50 μL for each well, and cultured at 37 degree under 5% CO2 overnight, and then, compounds of Examples or hemiasterlin 4 times diluted with the culture medium in 8 stages were added to the microplate in an amount of 50 μL for each well. To wells to which the test substance was not added, the culture medium was added in an amount of 50 μL for each well. These were cultured at 37 degree under 5% CO2 for 3 days. After culturing, the microplate was taken out from the incubator, and was left at rest at room temperature for 10 minutes. 50 μL of CellTiter-Glo Luminescent Cell Viability Assay (Promega) was added, and the resultant mixture was stirred. This mixture was incubated at a dark place for 20 minutes. Using a microplate luminometer, luminescence at each well was measured, thereby calculating the cell viability for each concentration of the test substance. The IC50 value was calculated in accordance with the method described in Test Example 3.

Karpas-299 cells = assay: Cellular toxicity test (1), CellTiter-Glo, Karpas-299; type: cell-based; settings: Homo sapiens, 96 h, cultured 4 days, cell viability
Protocol: (§3) SU-DHL-1 cells (American Type Culture Collection, hereinafter, ATCC) and Karpas-299 cells (European Collection of Authenticated Cell Cultures, hereinafter, ECACC), which are human lymphoma cell lines, were cultured in RPMI 1640 (GIBCO) containing 10% fetal bovine serum (MP Biomedicals) (hereinafter, referred to as the “culture medium” in this test). SU-DHL-1 cells and Karpas-299 cells were prepared to be 2×10^6 cells/mL in the culture medium, and were added to a 96 well microplate for cell culturing in an amount of 50 μL for each well. Compounds of Examples or hemiasterlin 4 times diluted with the culture medium in 8 stages were added to the microplate in an amount of 50 μL for each well. To wells to which the test substance was not added, the culture medium was added in an amount of 50 μL for each well. These were cultured at 37 degree under 5% CO2 for 4 days. After culturing, the microplate was taken out from the incubator, and was left at rest at room temperature for 10 minutes. To each well, 50 μL of CellTiter-Glo Luminescent Cell Viability Assay (Promega) was added, and the resultant mixture was stirred. This mixture was incubated at a dark place for 20 minutes. Using a microplate luminometer, luminescence at each well was measured, thereby calculating the cell viability for each concentration of the test substance. From the cell viability, the IC50 value of the test substance was determined.
as §1, §2

SU-DHL-1 cells = assay: Cellular toxicity test (1), CellTiter-Glo, SU-DHL-1; type: cell-based; settings: Homo sapiens, 96 h, cultured 4 days, cell viability
Protocol: as §3, §1, §2

[1] = Pharmacokinetic evaluation test using mice; type: in vivo
Protocol: A pharmacokinetic evaluation test was performed by single intravenous administration of Example 4 at a dose of 1.0 mg/kg to mice. A calibration curve was made from measurements of Example 4 with known concentration, and by interpolating measurements of each specimen to this, the amount of the compound contained in unit volume of each plasma was calculated using LC-MS. Pharmacokinetics of compound 14 and hemiasterlin were similarly evaluated.
(n.d. in the tables means less than the detection limit value (0.5 ng/mL).)

porcine tubulin = porcine tubulin (Sus scrofa, UniProt P02550+P02554); assay: Activity for inhibiting microtubule polymerization using porcine tubulins (1); type: biochemical; set-up: purchased Cytoskeleton Inc. BK006P; settings: compound 0.91 μM; absorbance at 340 nm, 37° C.; FIG. 1 and FIG. 2
Sequence of porcine tubulin (P02554 whole entry): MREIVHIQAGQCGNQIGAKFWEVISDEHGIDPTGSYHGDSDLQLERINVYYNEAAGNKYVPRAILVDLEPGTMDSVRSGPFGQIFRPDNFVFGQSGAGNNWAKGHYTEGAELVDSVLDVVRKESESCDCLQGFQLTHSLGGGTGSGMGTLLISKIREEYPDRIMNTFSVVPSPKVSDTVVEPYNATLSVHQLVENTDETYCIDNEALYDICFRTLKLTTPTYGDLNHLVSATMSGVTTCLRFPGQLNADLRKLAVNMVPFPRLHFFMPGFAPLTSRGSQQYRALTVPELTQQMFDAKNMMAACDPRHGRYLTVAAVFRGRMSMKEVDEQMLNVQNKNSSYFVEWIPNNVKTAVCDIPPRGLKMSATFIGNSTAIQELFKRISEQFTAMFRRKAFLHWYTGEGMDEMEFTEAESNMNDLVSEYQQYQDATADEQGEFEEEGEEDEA
Sequence of porcine tubulin (P02550 whole entry): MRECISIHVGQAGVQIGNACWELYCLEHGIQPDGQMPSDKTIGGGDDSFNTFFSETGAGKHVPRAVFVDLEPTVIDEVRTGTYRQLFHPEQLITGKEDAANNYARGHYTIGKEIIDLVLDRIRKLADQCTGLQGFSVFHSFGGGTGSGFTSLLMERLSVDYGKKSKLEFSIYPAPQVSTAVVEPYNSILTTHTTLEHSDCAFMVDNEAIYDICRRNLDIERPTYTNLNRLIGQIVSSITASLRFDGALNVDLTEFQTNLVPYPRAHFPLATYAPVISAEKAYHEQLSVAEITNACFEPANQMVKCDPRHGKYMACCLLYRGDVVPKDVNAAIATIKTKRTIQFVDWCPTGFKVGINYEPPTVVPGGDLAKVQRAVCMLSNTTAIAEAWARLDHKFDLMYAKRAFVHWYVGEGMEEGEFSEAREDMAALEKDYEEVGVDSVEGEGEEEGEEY

[2] = single intravenous 1.0 mg/kg, 6 hr
[3] = single intravenous 1.0 mg/kg, 24 hr

CN[C@H](C(=O)N[C@H](C(=O)N(C)[C@H](/C=C(\C)C(=O)N[C@H](CCC(=O)O)C(=O)O)C(C)C)C(C)(C)C)C(C)(C)c1cn(C)c2ccccc12 [Example 4]
Papp (in vitro): < 0.1 ×10⁻⁶ cm/s
IC50 (SK-BR-3 cells): 193 nM
IC50 (Karpas-299 cells): 291 nM
IC50 (SU-DHL-1 cells): 250 nM
half-life ([1]; mouse, plasma, 1 mg/kg, single intravenous administration): < 30 min
concentration at 0.5 hr ([1]; mouse, plasma, iv, 1 mg/kg, single intravenous 1.0 mg/kg, 0.5 hr, read-out: Blood concentration, mean value): 13.7 ng/mL
concentration at 2 hr ([1]; mouse, plasma, iv, 1 mg/kg, single intravenous 1.0 mg/kg, 2 hr, read-out: Blood concentration, individual mice 1-3): 0.7 ng/mL
concentration at 2 hr ([1]; mouse, plasma, iv, 1 mg/kg, single intravenous 1.0 mg/kg, 2 hr, read-out: Blood concentration, mean value): 0.8 ng/mL
Blood concentration, individual mice 1-3 ([1]; single intravenous 1.0 mg/kg, 0.5 hr, 1 mg/kg): 10.3 ng/mL and 10.2 ng/mL and 20.6 ng/mL
Blood concentration, individual mice 1-3 ([1]; single intravenous 1.0 mg/kg, 2 hr, 1 mg/kg): 1.0 ng/mL and 0.7 ng/mL
Blood concentration, individual mice 1-3 [1, 2]: n.d. (less than the detection limit value (0.5 ng/mL))
Blood concentration, mean value [1, 2]: n.d. (less than the detection limit value (0.5 ng/mL))
Blood concentration, individual mice 1-3 [1, 3]: n.d. (less than the detection limit value (0.5 ng/mL))
Blood concentration, mean value [1, 3]: n.d. (less than the detection limit value (0.5 ng/mL))
Blood concentration of Example 4 detected as metabolite of Example 14 ([1]; single intravenous administration of Example 14, 6 hr, animal 1): n.d. (less than the detection limit value (0.5 ng/mL))
Blood concentration of Example 4 detected as metabolite of Example 14 ([1]; single intravenous administration of Example 14, 6 hr, animal 2): n.d. (less than the detection limit value (0.5 ng/mL))
Blood concentration of Example 4 detected as metabolite of Example 14 ([1]; single intravenous administration of Example 14, 6 hr, animal 3): n.d. (less than the detection limit value (0.5 ng/mL))
Blood concentration of Example 4 detected as metabolite of Example 14, mean ([1]; single intravenous administration of Example 14, 6 hr): n.d. (less than the detection limit value (0.5 ng/mL))
Blood concentration of Example 4 detected as metabolite of Example 14 ([1]; single intravenous administration of Example 14, 24 hr, animal 1): n.d. (less than the detection limit value (0.5 ng/mL))
Blood concentration of Example 4 detected as metabolite of Example 14 ([1]; single intravenous administration of Example 14, 24 hr, animal 2): n.d. (less than the detection limit value (0.5 ng/mL))
Blood concentration of Example 4 detected as metabolite of Example 14 ([1]; single intravenous administration of Example 14, 24 hr, animal 3): n.d. (less than the detection limit value (0.5 ng/mL))
Blood concentration of Example 4 detected as metabolite of Example 14, mean ([1]; single intravenous administration of Example 14, 24 hr): n.d. (less than the detection limit value (0.5 ng/mL))
activity for inhibiting microtubule polymerization (porcine tubulin): exhibited activities for inhibiting microtubule polymerization; also recorded: exhibited a stronger polymerization inhibitory activity
